Laboratory results from ChEMBL document CHEMBL1126920, “Design and synthesis of an orally active macrocyclic neutral endopeptidase 24.11 inhibitor” (J Med Chem, 1993).
pIC50: −log10 of the molar value.

Molecular target: T1, Neprilysin (Rattus norvegicus, UniProt P07861)
T1 sequence (P07861 whole entry): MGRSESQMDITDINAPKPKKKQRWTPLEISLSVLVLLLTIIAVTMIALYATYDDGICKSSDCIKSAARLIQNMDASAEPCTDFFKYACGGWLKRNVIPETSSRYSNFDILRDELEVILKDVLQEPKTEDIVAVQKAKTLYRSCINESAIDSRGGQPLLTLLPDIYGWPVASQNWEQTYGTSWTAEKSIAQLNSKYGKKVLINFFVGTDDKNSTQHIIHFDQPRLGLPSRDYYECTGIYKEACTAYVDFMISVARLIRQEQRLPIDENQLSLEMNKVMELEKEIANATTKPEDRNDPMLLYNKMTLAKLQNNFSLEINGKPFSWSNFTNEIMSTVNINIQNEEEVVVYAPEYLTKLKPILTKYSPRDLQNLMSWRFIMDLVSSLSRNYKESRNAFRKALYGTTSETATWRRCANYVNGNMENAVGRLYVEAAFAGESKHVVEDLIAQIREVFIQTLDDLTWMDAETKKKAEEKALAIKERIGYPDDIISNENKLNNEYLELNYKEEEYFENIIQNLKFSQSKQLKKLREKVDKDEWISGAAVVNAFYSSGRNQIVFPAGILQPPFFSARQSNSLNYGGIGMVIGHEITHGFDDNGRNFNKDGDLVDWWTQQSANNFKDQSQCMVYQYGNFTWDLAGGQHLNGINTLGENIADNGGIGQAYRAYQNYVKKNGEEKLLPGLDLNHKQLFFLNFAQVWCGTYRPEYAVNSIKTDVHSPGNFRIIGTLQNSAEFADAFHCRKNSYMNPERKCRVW
Assay: Inhibition of NEP 24.11 from rat kidney
Format: tissue-based

| SMILES | pIC50 |
| --- | --- |
| O=C1NC(C(=O)Nc2ccccc2)CCCCCCC1CS (configuration not stated) | 6.26 |
| O=C1NC(C(=O)N[C@H](CO)C(=O)O)CCCCCCC1CS (some centres not stated) | 7.96 |
| O=C1NC(C(=O)NCCOCCO)CCCCCCC1CS (configuration not stated) | 7.08 |
| CS(=O)(=O)CCCNC(=O)C1CCCCCCC(CS)C(=O)N1 (configuration not stated) | 7.20 |
| O=C1NC(C(=O)N2CCC[C@H]2C(=O)O)CCCCCCC1CS (some centres not stated) | 8.70 |
| O=C1NC(C(=O)NCCCO)CCCCCCC1CS (configuration not stated) | 6.68 |
| O=C1NC(C(=O)Nc2cccnc2)CCCCCCC1CS (configuration not stated) | 7.23 |
| NCCCC[C@@H](NC(=O)C1CCCCCCC(CS)C(=O)N1)C(=O)O (some centres not stated) | 7.85 |
| O=C1NC(C(=O)O)CCCCCCC1CS (racemic) | 8.40 |
| O=C1NC(C(=O)O)CCCCCCC1CS (single isomer, unassigned; (+)) | 8.52 |
| O=C1NC(C(=O)N2C[C@H](O)C[C@H]2C(=O)O)CCCCCCC1CS (single isomer, unassigned; (-)) | 9.10 |
| O=C1NC(C(=O)O)CCCCCCC1CS (single isomer, unassigned; (-)) | < 6.00 |
